Data as given in patent publication US9011880B2, “Compounds and methods for treating cancer” (IGF Oncology, LLC, priority 2003, dated 2015).
Like-named read-outs stand apart in the source and are kept apart here.

Legend:
[1] = tested on: MDA-MB-231 breast cancer cells; conditions: cells incubated with insulin; cited from earlier work
breast cancer cells [2] = conditions: administered with insulin; cited from earlier work
FSAII tumors = experiment: FSAII tumor growth in vivo in mice; set-up: species or system mouse; conditions: intraperitoneally, days 0, 2 and 5
Protocol: FSAII testing. Six-week old female mice were injected subcutaneously in the thigh with 200,000 FSAII cells each in serum-free medium. Tumors were allowed to grow until they reached an average volume of 100 mm^3 (calculated as length×breadth^2). At that time, treatment was initiated. […] A fifth group of mice was untreated controls. Each group contained five mice. Mice were treated on days 0, 2, and 5. Tumor growth was measured every second day.

LNCAP cells [3] = experiment: In vitro proliferation assay, LNCaP (Example 8); format: cell-based, human; conditions: for inhibition of proliferation compared to untreated control cells / IC50: LNCaP; for IC50: RPMI + 10% FCS, 48 hours with drug, IGF-MTX as concentration of MTX groups
Protocol: LNCaP, MCF7 and MCF7-L cell lines were plated, respectively, in a 96-well plate at 5,000 cells per well in RPMI+glutamine+10% FCS medium in 100 μl. After 24 hours, 100 μl fresh medium was added containing no drug (control), IGF-MTX or MTX at the indicated concentration.

MCF7 tumors = experiment: MCF7 xenograft tumor growth in nu/nu mice; format: in vivo, mouse; conditions: for MCF7 tumor growth: days 0, 4 and 8, 12 days of observation
Protocol: (§1) MCF7 cells (human breast adenocarcinoma cell line) were grown in Eagle's minimal essential medium supplemented with 0.1 mg/ml insulin and 10% FCS. The estrogen-dependent MCF7-L cell line was a gift from Deepali Sachdev of the University of Minnesota. MCF7-L cells were grown in modified IMEM medium (Invitrogen, Carlsbad, Calif., USA) supplemented with 0.1 mg/ml insulin. LNCaP cells (metastatic human prostatic adenocarcinoma) were grown in RPMI supplemented with glutamine and 10% FCS (Invitrogen, Carlsbad, Calif., USA). Cells were grown at 37° C. in a 5% CO2 humidified atmosphere. In each case, cells were grown to approximately two-thirds confluence, harvested by trypsinization, washed with rich medium and then washed twice with PBS and resuspended in phosphate buffered saline in BD matrigel matrix (Becton Dickinson, Franklin Lakes, N.J., USA). Cells were injected intradermally in mice on the back. An estrogen pellet (0.5 mg estradiol, 60-day release, Innovative Research of America, Sarasota, Fla., USA) was implanted subcutaneously between the shoulder blades two days before implanting MCF7 and MCF7-L cells. MCF7 and MCF7-L cells were implanted in 8-week-old female nu/nu mice. LNCaP cells were implanted in 8-week-old male nu/nu mice. […] MTX was dissolved in PBS. Untreated vehicle controls received 2 mM HCl, 1% glycerol. Drug was administered intravenously by tail-vein injection in a volume of 12.5 μl per gram mouse weight. All studies were approved by the University of Minnesota Animal Care and Use Committee and conformed to relevant ethical guidelines.
Three in vivo studies were performed to assess the targeting of MTX with long-R3-IGF-1. In the initial preliminary study, breast cancer MCF7 cells were implanted intradermally in the backs of nude mice.

LNCAP cells [4] = experiment: LNCAP proliferation in vitro (Example 5, cell counting kit-8)
Protocol: LNCAP cells were plated in a 96-well plate at 3,000 cells per well in RPMI medium supplemented with 10% fetal bovine serum (FBS). After incubation overnight, the medium in the wells was replaced with 100 μl per well of RPMI supplemented with 0.1% FBS. […] After incubation for 4 days, cell proliferation was assayed with the cell counting kit-8 (Dojindo Molecular Technologies, Gaithersburg, Md.).

[5] = IGF-MTX- and MTX-related toxicity in mice (ill effects, body weight)
Protocol: as §1

[6] = tested on: mouse fibrosarcoma cell line FSAII; experiment: In vitro growth inhibition of FSAII cells (cell-counting kit-8); format: cell-based; conditions: minimal medium, 2 nM to 2 μM, 72 hours
Protocol: In vitro growth inhibition. […] The cells were grown in a 5% CO2 atmosphere at 37° C. in 100 cm^2 plastic tissue culture dishes (20 ml medium). Cells were passed every 4-6 days and seeded at 2×10^6 cells per plate. Cells were harvested by washing once in Hank's balanced salt solution, and then digesting with 3 ml of trypsin-EDTA for 3-10 minutes until cells had detached. Trypsinization was stopped by adding rich medium. The harvested cells were washed by centrifugation and resuspended in rich medium, and then plated in a 96-well plate at 12,000 cells per well in rich medium. Plates were incubated in the rich medium 16 hours and then transferred to minimal medium (100 μl/well), which lacked serum and thus lacked insulin and IGF and other growth factors. Minimal medium was RPMI supplemented with 10 μg/ml transferrin (iron-loaded) and 200 μg/ml bovine serum albumin. […] Each condition was tested in triplicate. After 72 hours incubation at 37° C., cell proliferation was assayed by the cell-counting kit-8, based on tetrazolium dye reduction, similar to the MTT assay (Dojindo Molecular Technologies, Gaithersburg, Md.).

MCF7-L tumors = experiment: MCF7-L xenograft tumor growth in nu/nu mice; format: in vivo, mouse; conditions: day 22; IGF-MTX 10 nmol of MTX/g or free MTX 40 nmol/g, tail vein, days 0 and 5
Protocol: as §1, with “Drug was administered intravenously by tail-vein injection in a volume of 12.5 μl per gram mouse weight. All studies were approved by the University of Minnesota Animal Care and Use Committee and conformed to relevant ethical guidelines.” left out

[7] = humans, cited from earlier work
breast cancer cells [8] = conditions: cells incubated with insulin; cited from earlier work
LNCAP tumors [9] = format: in vivo, mouse; conditions: days 0, 4, 8, 18, 22 and 26
Protocol: LNCAP testing. Eight-week old athymic male mice (nu/nu) were injected subcutaneously in the thigh with 1 million LNCAP cells in serum-free medium. Tumors were allowed to grow until they reached an average size of 100 mm^3. […] A fifth group of mice was untreated controls.

IGF-1R = target: T1, IGF-1R (Homo sapiens, UniProt P08069); experiment: Competitive binding assay to IGF-1R on MCF7 cell monolayers; conditions: competition against radiolabelled wild-type IGF-1, MCF7 cells
T1 construct: endogenous in cells; host or cells: MCF7 (human breast cancer cell line), near-confluent monolayers
Protocol: MCF7 cells were plated in a 24-well plate and incubated overnight at 37° C. in a 6.5% CO2 humidified atmosphere in DMEM+glutamine with 10% fetal calf serum (FCS) at a cell number to generate close to confluent monolayers. Cells were washed twice and placed in 0.1 M HEPES-NaOH, pH 7.5, 120 mM NaCl, 5 mM KCl, 1.2 mM MgSO4, 0.1% bovine serum albumin (binding buffer). The plate was preincubated at 4° C. for 1 hour. For the assay wells, long-R3-IGF-1 or IGF-MTX conjugate was added at the indicated concentration in binding buffer (positive controls had no addition). I^125-labeled IGF-1 was then added in the amount of 0.03 μCi per well. Plates were incubated at 4° C. overnight, and then washed twice in binding buffer. Cells were lysed with 300 mM NaOH, 1% SDS. The lysate of each well was counted by scintillation counting. Each condition was assayed in duplicate.
A competition binding assay between the IGF-MTX conjugate and radiolabelled IGF-1 was performed as described in the Materials and Methods. MCF7 cells were grown to near confluence, and incubated with unconjugated long-R3-IGF-1 or conjugated IGF-MTX in competition with radiolabelled wild-type IGF-1 (FIG. 9).

LNCAP tumors [10] = experiment: LNCaP xenograft tumor growth in nu/nu mice; format: in vivo, mouse; conditions: for fold lower dose at which it is or appears more effective than free MTX: LNCaP xenografts (prostate cancer model in mice)
Protocol: as §1
In a final in vivo study, prostate cancer LNCaP cells were implanted intradermally on day 0 in mice, which were then randomized to different treatment groups.

[11] = low dose 15 μmoles/kg methotrexate
[12] = Minimal med. (0.1% FBS), MTX conc. 2 nM
[13] = Minimal med. (0.1% FBS), MTX conc. 8 nM
[14] = Minimal med. (0.1% FBS), MTX conc. 32 nM
[15] = Minimal med. (0.1% FBS), MTX conc. 125 nM
[16] = Minimal med. (0.1% FBS), MTX conc. 500 nM
[17] = Minimal med. (0.1% FBS), MTX conc. 2000 nM
[18] = Rich medium (10% FBS), MTX conc. 2 nM
[19] = Rich medium (10% FBS), MTX conc. 8 nM
[20] = Rich medium (10% FBS), MTX conc. 32 nM
[21] = Rich medium (10% FBS), MTX conc. 125 nM
[22] = Rich medium (10% FBS), MTX conc. 500 nM
[23] = mice implanted with MCF7-L cells, n = 5/group

T1 sequence (P08069 31-736 limits assumed): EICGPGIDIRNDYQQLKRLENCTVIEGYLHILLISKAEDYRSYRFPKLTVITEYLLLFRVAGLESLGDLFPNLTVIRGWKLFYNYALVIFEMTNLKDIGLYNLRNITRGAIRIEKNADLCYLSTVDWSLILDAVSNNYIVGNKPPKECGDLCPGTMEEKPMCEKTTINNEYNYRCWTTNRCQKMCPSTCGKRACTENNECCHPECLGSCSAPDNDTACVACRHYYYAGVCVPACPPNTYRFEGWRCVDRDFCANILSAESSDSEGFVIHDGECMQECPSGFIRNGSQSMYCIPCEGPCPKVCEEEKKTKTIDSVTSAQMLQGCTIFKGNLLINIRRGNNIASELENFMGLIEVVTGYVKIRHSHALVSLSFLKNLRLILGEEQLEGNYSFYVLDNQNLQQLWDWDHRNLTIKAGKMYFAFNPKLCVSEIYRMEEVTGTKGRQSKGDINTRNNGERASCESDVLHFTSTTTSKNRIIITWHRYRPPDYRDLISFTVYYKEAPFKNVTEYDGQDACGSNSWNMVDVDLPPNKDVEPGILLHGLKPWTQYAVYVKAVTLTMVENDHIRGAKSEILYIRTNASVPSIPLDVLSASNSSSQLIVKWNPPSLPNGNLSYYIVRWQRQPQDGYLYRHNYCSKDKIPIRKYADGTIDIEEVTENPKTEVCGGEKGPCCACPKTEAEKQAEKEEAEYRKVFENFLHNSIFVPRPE
T1 sequence (P08069 741-1367 limits assumed): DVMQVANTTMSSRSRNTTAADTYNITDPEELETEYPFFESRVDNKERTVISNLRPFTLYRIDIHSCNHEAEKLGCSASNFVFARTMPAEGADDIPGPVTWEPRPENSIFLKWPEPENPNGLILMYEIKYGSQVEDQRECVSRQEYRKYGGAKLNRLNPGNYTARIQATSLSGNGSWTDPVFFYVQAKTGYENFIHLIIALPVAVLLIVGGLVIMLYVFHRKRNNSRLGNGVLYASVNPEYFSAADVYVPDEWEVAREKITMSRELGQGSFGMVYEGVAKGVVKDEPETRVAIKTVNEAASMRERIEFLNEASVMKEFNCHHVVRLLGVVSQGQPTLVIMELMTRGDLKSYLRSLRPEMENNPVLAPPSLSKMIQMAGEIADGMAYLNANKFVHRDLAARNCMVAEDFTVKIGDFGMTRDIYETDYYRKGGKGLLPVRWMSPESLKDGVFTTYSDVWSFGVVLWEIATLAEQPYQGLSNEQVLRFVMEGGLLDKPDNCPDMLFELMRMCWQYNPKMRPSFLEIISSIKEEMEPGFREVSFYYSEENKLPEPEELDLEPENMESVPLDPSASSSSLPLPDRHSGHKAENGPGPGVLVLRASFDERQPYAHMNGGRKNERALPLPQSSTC

## Cc1c2ccncc2c(C)c2c1[nH]c1ccccc12 [elipticine]
[1]
  stimulation of uptake: 2 fold

## CN(Cc1cnc2nc(N)nc(N)c2n1)c1ccc(C(=O)N[C@@H](CCC(=O)O)C(=O)O)cc1 [methotrexate]
Breast cancer cells [2]
  factor of lower methotrexate concentration for the same percent cell killing than methotrexate alone: 10^4
FSAII tumors; high dose 60 μmoles/kg methotrexate
  effect on FSAII tumor growth: Neither the high or low dose of methotrexate had any apparent effect
FSAII tumors; [11]
  effect on FSAII tumor growth: Neither the high or low dose of methotrexate had any apparent effect
LNCAP cells [3]; 2000 nM
  inhibition of proliferation at highest tested concentration: significantly greater inhibition than IGF-MTX
LNCAP cells [3]
  inhibition of proliferation compared to untreated control cells: inhibited proliferation of LNCaP cells
LNCAP cells [3]; free MTX
  IC50: ~400 nM
MCF7 tumors; 40 nmol/g intravenous
  MCF7 tumor growth: tumors continued to grow
LNCAP cells [4]; [12]
  Cell number (relative units): .653 ± .046 relative units
LNCAP cells [4]; [13]
  Cell number (relative units): .737 ± .043 relative units
LNCAP cells [4]; [14]
  Cell number (relative units): .994 ± .226 relative units
LNCAP cells [4]; [15]
  Cell number (relative units): .835 ± .048 relative units
LNCAP cells [4]; [16]
  Cell number (relative units): .706 ± .051 relative units
LNCAP cells [4]; [17]
  Cell number (relative units): 0.418 ± .026 relative units
LNCAP cells [4]; [18]
  Cell number (relative units): 0.724 ± .015 relative units
LNCAP cells [4]; [19]
  Cell number (relative units): 0.596 ± .071 relative units
LNCAP cells [4]; [20]
  Cell number (relative units): 1.017 ± .033 relative units
LNCAP cells [4]; [21]
  Cell number (relative units): 0.223 ± .012 relative units
LNCAP cells [4]; [22]
  Cell number (relative units): 0.163 ± .009 relative units
LNCAP cells [4]; minimal medium containing 0.1% serum
  minimal inhibitory concentration: about 2000 nM
LNCAP cells [4]; rich medium containing 10% serum
  minimal inhibitory concentration: about 125 nM
[5]; [23]
  Average weight of mice, Day 4: 19.5 g
  Average weight of mice, Day 20: 20.8 g
[5]; mice implanted with MCF7-L cells, n = 5/group, measured immediately before treatment
  Average weight of mice, Day 0: 19.2 g
[6]
  inhibition of FSAII proliferation: inhibited FSAII proliferation
MCF7-L tumors
  MCF7-L tumor growth inhibition: inhibited about equally
[7]; cumulative per 3 weeks
  maximum safe dosage: about 500 micromoles per meter squared per 3 weeks
[7]; lowest dosage usually used
  minimum effective dosage: about 130 micromoles per meter squared per 3 weeks
Breast cancer cells [8]
  stimulation of uptake: 50%
LNCAP tumors [9]; high dose 40 μmoles/kg methotrexate
  effect on LNCAP tumor growth: appeared to have no effect
LNCAP tumors [9]; [11]
  effect on LNCAP tumor growth: appeared to have no effect

## IGF-MTX
LNCAP cells [3]
  inhibition of proliferation compared to untreated control cells: inhibited proliferation of LNCaP cells
  IC50: ~1000 nM
LNCAP cells [3]; LNCaP cells in vitro
  higher concentration than free MTX required to achieve the same inhibitory effect: about 2 times
MCF7 tumors; 10 nmol of MTX/g intravenous
  MCF7 tumor growth: showed no signs of tumor growth on average
MCF7 tumors; MCF7 xenografts
  fold lower molar dosage at which more effective than free MTX: 4 fold
MCF7 tumors; day 12, IGF-MTX 10 nmol of MTX/g vs free MTX 40 nmol/g
  difference in tumor volume on average between IGF-MTX conjugate-treated group and MTX-treated group: ~8 fold
LNCAP cells [4]; [12]
  Cell number (relative units): .677 ± .057 relative units
LNCAP cells [4]; [13]
  Cell number (relative units): .794 ± .028 relative units
LNCAP cells [4]; [14]
  Cell number (relative units): .921 ± .014 relative units
LNCAP cells [4]; [15]
  Cell number (relative units): .921 ± .014 relative units
LNCAP cells [4]; [16]
  Cell number (relative units): .635 ± .038 relative units
LNCAP cells [4]; [17]
  Cell number (relative units): .255 ± .014 relative units
LNCAP cells [4]; [18]
  Cell number (relative units): 0.716 ± .021 relative units
LNCAP cells [4]; [19]
  Cell number (relative units): 0.674 ± .036 relative units
LNCAP cells [4]; [20]
  Cell number (relative units): 1.248 ± .018 relative units
LNCAP cells [4]; [21]
  Cell number (relative units): 0.891 ± .017 relative units
LNCAP cells [4]; [22]
  Cell number (relative units): 0.381 ± .008 relative units
LNCAP cells [4]; Rich medium (10% FBS), MTX conc. 2000 nM
  Cell number (relative units): 0.234 ± .004 relative units
[5]; mouse, in vivo
  Average weight of mice, Day 0: 17.8 g
  Average weight of mice, Day 4: 18.6 g
  Average weight of mice, Day 20: 20.1 g
MCF7-L tumors
  MCF7-L tumor growth inhibition: inhibited about equally
IGF-1R
  binding to the IGF receptor compared with long-R3-IGF-1: bound more tightly to the IGF receptor than long-R3-IGF-1 at most concentrations
LNCAP tumors [10]; 1.28 nmol/g (as MTX), single tail vein injection on day 5
  LNCaP tumor growth inhibition: did not inhibit tumor growth
LNCAP tumors [10]; 3.2 nmol/g (as MTX), single tail vein injection on day 5
  LNCaP tumor size compared to mice treated with higher doses of free MTX (50, 20 or 8 nmol/g): much smaller
LNCAP tumors [10]; 8 nmol/g (as MTX), single tail vein injection on day 5
  LNCaP tumor size compared to mice treated with higher doses of free MTX (50, 20 or 8 nmol/g): much smaller
LNCAP tumors [10]; 8 nmol/g IGF-MTX vs. 50 nmol/g MTX, day 98, listed as IGF-methotrexate conjugate
  fold lower dose at which more effective than free MTX (statistically significant): 6.5 fold
LNCAP tumors [10]; listed as IGF-MTX conjugate
  fold lower dose at which it is or appears more effective than free MTX: more than 15 fold
LNCAP tumors [10]; listed as IGF-methotrexate conjugate
  fold lower dose at which it is or appears more effective than free MTX: 15 fold
